Reference: PubChem BioAssay AID2060899 (Molecular Pharmacology Branch, DTP, NCI, 2025)
Several values for one entry are separate records, joined by “and”; a condition that tells them apart may be missing. Equal entries are not always repeated.

Tested on: 565726-208-R1-J5-PDC complex spheroids, growth inhibition
Experiment: Anticancer human tumor 565726-208-R1-J5-PDC patient-derived pancreatic adenocarcinoma cell line growth inhibition [RAS]
Conditions: for viability, T/C: stronger effect = lower value
In short: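 Multi-cell-type spheroids: tumor cells plus HUVEC endothelial cells and mesenchymal stem cells. RAS-pathway inhibitors were combined with targeted agents, each dosed in half-log steps down from clinical Cmax, or from 10 microM when Cmax was unknown.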

[1] = curve of first compound, second compound 0.0316 µM
[2] = curve of first compound, second compound 0.1 µM
[3] = curve of first compound, second compound 0.316 µM
[4] = curve of first compound, second compound 1 µM
[5] = second compound 0.0316 µM, first compound 0.0316 µM
[6] = second compound 0.0316 µM, first compound 0.1 µM
[7] = second compound 0.0316 µM, first compound 0.316 µM
[8] = second compound 0.0316 µM, first compound 1 µM
[9] = second compound 0.1 µM, first compound 0.0316 µM
[10] = second compound 0.1 µM, first compound 0.1 µM
[11] = second compound 0.1 µM, first compound 0.316 µM
[12] = second compound 0.1 µM, first compound 1 µM
[13] = second compound 0.316 µM, first compound 0.0316 µM
[14] = second compound 0.316 µM, first compound 0.1 µM
[15] = second compound 0.316 µM, first compound 0.316 µM
[16] = second compound 0.316 µM, first compound 1 µM
[17] = second compound 1 µM, first compound 0.0316 µM
[18] = second compound 1 µM, first compound 0.1 µM
[19] = second compound 1 µM, first compound 0.316 µM
[20] = second compound 1 µM, first compound 1 µM
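Further: spheroids exposed to compounds for seven days before readout.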
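Wherever viability, T/C is given: 100% = DMSO vehicle control viability.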

## C=CC(=O)N1CCN(c2nc(OCC3CCCN3C)nc3c(F)c(-c4nc(N)cc(C)c4C(F)(F)F)c(Cl)cc23)C(C)C1 (stereo unspecified) + C#Cc1c(F)ccc2cc(O)cc(-c3ncc4c(N5CC6CCC(C5)N6)nc(OCC56CCCN5CC(F)C6)nc4c3F)c12
[1]
  IC50: > 1 µM
[2]
  IC50: > 1 µM
[3]
  IC50: > 1 µM
[4]
  IC50: > 1 µM
Curve of first compound, second compound 3.16 µM
  IC50: > 1 µM
Curve of first compound, second compound 10 µM
  IC50: > 1 µM
Second compound 0.0316 µM, first compound 0.00316 µM
  viability, T/C: 95.7%
Second compound 0.0316 µM, first compound 0.01 µM
  viability, T/C: 138%
[5]
  viability, T/C: 98.9%
[6]
  viability, T/C: 103%
[7]
  viability, T/C: 87%
[8]
  viability, T/C: 104%
Second compound 0.1 µM, first compound 0.00316 µM
  viability, T/C: 101%
Second compound 0.1 µM, first compound 0.01 µM
  viability, T/C: 124%
[9]
  viability, T/C: 90.8%
[10]
  viability, T/C: 94.2%
[11]
  viability, T/C: 110%
[12]
  viability, T/C: 106%
Second compound 0.316 µM, first compound 0.00316 µM
  viability, T/C: 94.2%
Second compound 0.316 µM, first compound 0.01 µM
  viability, T/C: 132%
[13]
  viability, T/C: 84.7%
[14]
  viability, T/C: 107%
[15]
  viability, T/C: 87.7%
[16]
  viability, T/C: 113%
Second compound 1 µM, first compound 0.00316 µM
  viability, T/C: 88.8%
Second compound 1 µM, first compound 0.01 µM
  viability, T/C: 113%
[17]
  viability, T/C: 81.3%
[18]
  viability, T/C: 77.1%
[19]
  viability, T/C: 82.8%
[20]
  viability, T/C: 84.2%
Second compound 3.16 µM, first compound 0.00316 µM
  viability, T/C: 65.5%
Second compound 3.16 µM, first compound 0.01 µM
  viability, T/C: 88.7%
Second compound 3.16 µM, first compound 0.0316 µM
  viability, T/C: 70%
Second compound 3.16 µM, first compound 0.1 µM
  viability, T/C: 65.6%
Second compound 3.16 µM, first compound 0.316 µM
  viability, T/C: 83%
Second compound 3.16 µM, first compound 1 µM
  viability, T/C: 93.5%
Second compound 10 µM, first compound 0.00316 µM
  viability, T/C: 52.3%
Second compound 10 µM, first compound 0.01 µM
  viability, T/C: 73.5%
Second compound 10 µM, first compound 0.0316 µM
  viability, T/C: 78.3%
Second compound 10 µM, first compound 0.1 µM
  viability, T/C: 72.4%
Second compound 10 µM, first compound 0.316 µM
  viability, T/C: 69.5%
Second compound 10 µM, first compound 1 µM
  viability, T/C: 71%

## C[C@@H](NC(=O)c1ncnc(N)c1Cl)c1ncc(C(=O)Nc2cc(C(F)(F)F)c(Cl)cn2)s1
Compound 0.0316 µM
  viability, T/C: 116% [middle of 4 runs]
Compound 0.316 µM
  viability, T/C: 101% [middle of 4 runs]
Compound 1 µM
  viability, T/C: 100% (2×) and 109% and 117%
Compound 3.16 µM
  viability, T/C: 106% [middle of 4 runs]
Curve of compound
  IC50: > 10 µM

## CCC(CC)c1cc(NC2CCC(N)C2)n2nccc2n1 (stereo unspecified) + C=CC(=O)N1CCN(c2nc(OCC3CCCN3C)nc3c(F)c(-c4nc(N)cc(C)c4C(F)(F)F)c(Cl)cc23)C(C)C1
Curve of first compound, second compound 0.00316 µM
  IC50: 1.93 µM
Curve of first compound, second compound 0.01 µM
  IC50: 1.7 µM
[1]
  IC50: 1.62 µM
[2]
  IC50: 1.6 µM
[3]
  IC50: 1.58 µM
[4]
  IC50: 1.72 µM
Second compound 0.00316 µM, first compound 0.0316 µM
  viability, T/C: 152%
Second compound 0.00316 µM, first compound 0.1 µM
  viability, T/C: 180%
Second compound 0.00316 µM, first compound 0.316 µM
  viability, T/C: 128%
Second compound 0.00316 µM, first compound 1 µM
  viability, T/C: 110%
Second compound 0.00316 µM, first compound 3.16 µM
  viability, T/C: 1.79%
Second compound 0.00316 µM, first compound 10 µM
  viability, T/C: 2.13%
Second compound 0.01 µM, first compound 0.0316 µM
  viability, T/C: 166%
Second compound 0.01 µM, first compound 0.1 µM
  viability, T/C: 179%
Second compound 0.01 µM, first compound 0.316 µM
  viability, T/C: 114%
Second compound 0.01 µM, first compound 1 µM
  viability, T/C: 94.6%
Second compound 0.01 µM, first compound 3.16 µM
  viability, T/C: 3.11%
Second compound 0.01 µM, first compound 10 µM
  viability, T/C: 1.95%
[5]
  viability, T/C: 174%
[6]
  viability, T/C: 170%
[7]
  viability, T/C: 125%
[8]
  viability, T/C: 88.1%
Second compound 0.0316 µM, first compound 3.16 µM
  viability, T/C: 1.53%
Second compound 0.0316 µM, first compound 10 µM
  viability, T/C: 2.03%
[9]
  viability, T/C: 221%
[10]
  viability, T/C: 184%
[11]
  viability, T/C: 102%
[12]
  viability, T/C: 96.2%
Second compound 0.1 µM, first compound 3.16 µM
  viability, T/C: 1.59%
Second compound 0.1 µM, first compound 10 µM
  viability, T/C: 2.52%
[13]
  viability, T/C: 182%
[14]
  viability, T/C: 169%
[15]
  viability, T/C: 103%
[16]
  viability, T/C: 92.5%
Second compound 0.316 µM, first compound 3.16 µM
  viability, T/C: 1.41%
Second compound 0.316 µM, first compound 10 µM
  viability, T/C: 2.15%
[17]
  viability, T/C: 175%
[18]
  viability, T/C: 176%
[19]
  viability, T/C: 136%
[20]
  viability, T/C: 92.7%
Second compound 1 µM, first compound 3.16 µM
  viability, T/C: 1.49%
Second compound 1 µM, first compound 10 µM
  viability, T/C: 1.88%

## Nc1ccn(C2OC(CO)C(O)C2(F)F)c(=O)n1 (stereo unspecified) + CCn1c(-c2cc(N3CCN(C)CC3)cnc2C(C)OC)c2c3cc(ccc31)-c1csc(n1)CC(NC(=O)C1CC1C)C(=O)N1CCCC(N1)C(=O)OCC(C)(C)C2
Curve of first compound, second compound 0.000949 µM
  IC50: 0.0219 µM
Curve of first compound, second compound 0.003 µM
  IC50: 0.0072 µM
Curve of first compound, second compound 0.00949 µM
  IC50: < 0.00316 µM
Curve of first compound, second compound 0.03 µM
  IC50: < 0.00316 µM
Curve of first compound, second compound 0.0949 µM
  IC50: < 0.00316 µM
Curve of first compound, second compound 0.3 µM
  IC50: < 0.00316 µM
Second compound 0.000949 µM, first compound 0.00316 µM
  viability, T/C: 63.3%
Second compound 0.000949 µM, first compound 0.01 µM
  viability, T/C: 54.7%
Second compound 0.000949 µM, first compound 0.0316 µM
  viability, T/C: 49.9%
Second compound 0.000949 µM, first compound 0.1 µM
  viability, T/C: 34.4%
Second compound 0.000949 µM, first compound 0.316 µM
  viability, T/C: 35%
Second compound 0.000949 µM, first compound 1 µM
  viability, T/C: 27.8%
Second compound 0.003 µM, first compound 0.00316 µM
  viability, T/C: 56.7%
Second compound 0.003 µM, first compound 0.01 µM
  viability, T/C: 46.3%
Second compound 0.003 µM, first compound 0.0316 µM
  viability, T/C: 40.4%
Second compound 0.003 µM, first compound 0.1 µM
  viability, T/C: 33.6%
Second compound 0.003 µM, first compound 0.316 µM
  viability, T/C: 33.1%
Second compound 0.003 µM, first compound 1 µM
  viability, T/C: 24.3%
Second compound 0.00949 µM, first compound 0.00316 µM
  viability, T/C: 38.8%
Second compound 0.00949 µM, first compound 0.01 µM
  viability, T/C: 42.1%
Second compound 0.00949 µM, first compound 0.0316 µM
  viability, T/C: 34.2%
Second compound 0.00949 µM, first compound 0.1 µM
  viability, T/C: 29.1%
Second compound 0.00949 µM, first compound 0.316 µM
  viability, T/C: 28.3%
Second compound 0.00949 µM, first compound 1 µM
  viability, T/C: 23.7%
Second compound 0.03 µM, first compound 0.00316 µM
  viability, T/C: 28.9%
Second compound 0.03 µM, first compound 0.01 µM
  viability, T/C: 31.7%
Second compound 0.03 µM, first compound 0.0316 µM
  viability, T/C: 24.4%
Second compound 0.03 µM, first compound 0.1 µM
  viability, T/C: 22.1%
Second compound 0.03 µM, first compound 0.316 µM
  viability, T/C: 24.1%
Second compound 0.03 µM, first compound 1 µM
  viability, T/C: 21.7%
Second compound 0.0949 µM, first compound 0.00316 µM
  viability, T/C: 25.4%
Second compound 0.0949 µM, first compound 0.01 µM
  viability, T/C: 26.9%
Second compound 0.0949 µM, first compound 0.0316 µM
  viability, T/C: 23.1%
Second compound 0.0949 µM, first compound 0.1 µM
  viability, T/C: 21.1%
Second compound 0.0949 µM, first compound 0.316 µM
  viability, T/C: 19.1%
Second compound 0.0949 µM, first compound 1 µM
  viability, T/C: 18.9%
Second compound 0.3 µM, first compound 0.00316 µM
  viability, T/C: 22.3%
Second compound 0.3 µM, first compound 0.01 µM
  viability, T/C: 25.2%
Second compound 0.3 µM, first compound 0.0316 µM
  viability, T/C: 23.3%
Second compound 0.3 µM, first compound 0.1 µM
  viability, T/C: 20.9%
Second compound 0.3 µM, first compound 0.316 µM
  viability, T/C: 22.2%
Second compound 0.3 µM, first compound 1 µM
  viability, T/C: 19%
